≈ marks a conversion by molar mass, not a printed value.
Experiments:
Staphylococcus aureus = assay: In vitro antimicrobial activity against Staphylococcus aureus X1; type: functional
Streptococcus pyogenes [1] = assay: In vivo effective dose against experimental infections in rodent caused by Streptococcus pyogenes C203 when administered orally; type: functional; conditions: po
Streptococcus pyogenes [2] = assay: In vitro antimicrobial activity against Streptococcus pyogenes C203; type: functional
Haemophilus influenzae = assay: In vitro antimicrobial activity against Haemophilus influenzae.; type: functional
Streptococcus pneumoniae = assay: In vitro antimicrobial activity against Streptococcus pneumoniae; type: functional
[3] = test system: Staphylococcus epidermidis; assay: In vitro antimicrobial activity against Staphylococcus epidermidis EPI1; type: functional
Streptococcus pyogenes [4] = assay: In vivo effective dose against experimental infections in rodent caused by Streptococcus pyogenes C203 when administered sc; type: functional
Enterococcus faecium = assay: In vitro antimicrobial activity against Streptococcus faecium X66; type: functional, streptococcus fae-cium

Structure (SMILES)	MIC (Staphylococcus aureus)	ED50 (Streptococcus pyogenes [1])	MIC (Streptococcus pyogenes [2])	MIC (Haemophilus influenzae)	MIC (Streptococcus pneumoniae)	MIC [3]	ED50 (Streptococcus pyogenes [4])	MIC (Enterococcus faecium)
CC[C@H]1OC(=O)C[C@@H](O)[C@H](C)[C@@H](O[C@@H]2O[C@H](C)[C@@H](O)[C@H](N(C)C)[C@H]2O)[C@@H](CCOc2ccccc2)C[C@@H](C)C(=O)/C=C/C(C)=C/[C@@H]1CO[C@@H]1O[C@H](C)[C@@H](O)[C@@H](O)[C@H]1OC	0.25 µg/mL (≈ 0.299 µM)	50 mg/kg	0.25 µg/mL (≈ 0.299 µM)	32 µg/mL (≈ 38.3 µM)	1 µg/mL (≈ 1.2 µM)	0.25 µg/mL (≈ 0.299 µM)	3.2 mg/kg	4 µg/mL (≈ 4.78 µM)
CC[C@H]1OC(=O)C[C@@H](O)[C@H](C)[C@@H](O[C@@H]2O[C@H](C)[C@@H](O)[C@H](N(C)C)[C@H]2O)[C@@H](CCOc2cc(Cl)cc(Cl)c2)C[C@@H](C)C(=O)/C=C/C(C)=C/[C@@H]1CO[C@@H]1O[C@H](C)[C@@H](O)[C@@H](OC)[C@H]1OC	0.25 µg/mL (≈ 0.272 µM)	31 mg/kg	0.12 µg/mL (≈ 0.131 µM)	32 µg/mL (≈ 34.8 µM)	1 µg/mL (≈ 1.09 µM)	0.25 µg/mL (≈ 0.272 µM)	> 10 mg/kg	4 µg/mL (≈ 4.35 µM)
CCOC(=O)NN(CC[C@H]1C[C@@H](C)C(=O)/C=C/C(C)=C/[C@H](CO[C@@H]2O[C@H](C)[C@@H](O)[C@@H](OC)[C@H]2OC)[C@@H](CC)OC(=O)C[C@@H](O)[C@H](C)[C@H]1O[C@@H]1O[C@H](C)[C@@H](O)[C@H](N(C)C)[C@H]1O)C(=O)OCC	0.5 µg/mL (≈ 0.536 µM)	> 5 mg/kg	1 µg/mL (≈ 1.07 µM)	32 µg/mL (≈ 34.3 µM)	1 µg/mL (≈ 1.07 µM)	0.5 µg/mL (≈ 0.536 µM)	2.1 mg/kg	16 µg/mL (≈ 17.2 µM)
CC[C@H]1OC(=O)C[C@@H](O)[C@H](C)[C@@H](O[C@@H]2O[C@H](C)[C@@H](O)[C@H](N(C)C)[C@H]2O)[C@@H](CCBr)C[C@@H](C)C(=O)/C=C/C(C)=C/[C@@H]1CO[C@@H]1O[C@H](C)[C@@H](O)[C@@H](OC)[C@H]1OC	0.25 µg/mL (≈ 0.299 µM)	19 mg/kg	0.12 µg/mL (≈ 0.143 µM)	16 µg/mL (≈ 19.1 µM)	2 µg/mL (≈ 2.39 µM)	0.25 µg/mL (≈ 0.299 µM)	4.5 mg/kg	8 µg/mL (≈ 9.56 µM)
CC[C@H]1OC(=O)C[C@@H](O)[C@H](C)[C@@H](O[C@@H]2O[C@H](C)[C@@H](O)[C@H](N(C)C)[C@H]2O)[C@@H](CCOc2ccc(OC(C)=O)cc2)C[C@@H](C)C(=O)/C=C/C(C)=C/[C@@H]1CO	1 µg/mL (≈ 1.36 µM)	> 100 mg/kg	1 µg/mL (≈ 1.36 µM)	16 µg/mL (≈ 21.8 µM)	0.5 µg/mL (≈ 0.681 µM)	0.5 µg/mL (≈ 0.681 µM)	> 30 mg/kg	2 µg/mL (≈ 2.73 µM)
CC[C@H]1OC(=O)C[C@@H](O)[C@H](C)[C@@H](O[C@@H]2O[C@H](C)[C@@H](O)[C@H](N(C)C)[C@H]2O)[C@@H](CCS(=O)(=O)c2ccc(C)cc2)C[C@@H](C)C(=O)/C=C/C(C)=C/[C@@H]1CO[C@@H]1O[C@H](C)[C@@H](O)[C@@H](OC)[C@H]1OC	0.25 µg/mL (≈ 0.274 µM)	> 50 mg/kg	1 µg/mL (≈ 1.1 µM)	16 µg/mL (≈ 17.5 µM)	1 µg/mL (≈ 1.1 µM)	0.25 µg/mL (≈ 0.274 µM)	4.2 mg/kg	8 µg/mL (≈ 8.77 µM)
CCOC(C[C@H]1C[C@@H](C)C(=O)/C=C/C(C)=C/[C@H](CO[C@@H]2O[C@H](C)[C@@H](O)[C@@H](OC)[C@H]2OC)[C@@H](CC)OC(=O)C[C@@H](O)[C@H](C)[C@H]1O[C@@H]1O[C@H](C)[C@@H](O)[C@H](N(C)C)[C@H]1O)OCC	0.5 µg/mL (≈ 0.591 µM)	35 mg/kg	0.5 µg/mL (≈ 0.591 µM)	16 µg/mL (≈ 18.9 µM)	4 µg/mL (≈ 4.73 µM)	1 µg/mL (≈ 1.18 µM)	3.4 mg/kg	8 µg/mL (≈ 9.46 µM)
CC[C@H]1OC(=O)C[C@@H](O)[C@H](C)[C@@H](O[C@@H]2O[C@H](C)[C@@H](O)[C@H](N(C)C)[C@H]2O)[C@@H](CCNCCc2ccccc2)C[C@@H](C)C(=O)/C=C/C(C)=C/[C@@H]1CO	4 µg/mL (≈ 5.69 µM)	> 100 mg/kg	2 µg/mL (≈ 2.85 µM)	8 µg/mL (≈ 11.4 µM)	1 µg/mL (≈ 1.42 µM)	4 µg/mL (≈ 5.69 µM)	7.2 mg/kg	8 µg/mL (≈ 11.4 µM)
CC[C@H]1OC(=O)C[C@@H](O)[C@H](C)[C@@H](O[C@@H]2O[C@H](C)[C@@H](O)[C@H](N(C)C)[C@H]2O)[C@@H](CCO)C[C@@H](C)C(=O)/C=C/C(C)=C/[C@@H]1CO[C@@H]1O[C@H](C)[C@@H](O)[C@@H](OC)[C@H]1OC	2 µg/mL (≈ 2.58 µM)	> 100 mg/kg	4 µg/mL (≈ 5.17 µM)	32 µg/mL (≈ 41.3 µM)	4 µg/mL (≈ 5.17 µM)	2 µg/mL (≈ 2.58 µM)	2.1 mg/kg	32 µg/mL (≈ 41.3 µM)
CC[C@H]1OC(=O)C[C@@H](O)[C@H](C)[C@@H](O[C@@H]2O[C@H](C)[C@@H](O[C@H]3C[C@@](C)(O)[C@@H](O)[C@H](C)O3)[C@H](N(C)C)[C@H]2O)[C@@H](CCOc2ccccc2)C[C@@H](C)C(=O)/C=C/C(C)=C/[C@@H]1CO[C@@H]1O[C@H](C)[C@@H](O)[C@@H](O)[C@H]1OC	2 µg/mL (≈ 2.04 µM)	91 mg/kg	4 µg/mL (≈ 4.08 µM)	> 128 µg/mL	32 µg/mL (≈ 32.6 µM)	2 µg/mL (≈ 2.04 µM)	> 10 mg/kg	> 128 µg/mL
CC[C@H]1OC(=O)C[C@@H](O)[C@H](C)[C@@H](O[C@@H]2O[C@H](C)[C@@H](O)[C@H](N(C)C)[C@H]2O)[C@@H](CCOc2ccc(CN3CCCCCC3)cc2)C[C@@H](C)C(=O)/C=C/C(C)=C/[C@@H]1CO[C@@H]1O[C@H](C)[C@@H](O)[C@@H](OC)[C@H]1OC	0.5 µg/mL (≈ 0.52 µM)	27 mg/kg	0.5 µg/mL (≈ 0.52 µM)	32 µg/mL (≈ 33.3 µM)	1 µg/mL (≈ 1.04 µM)	0.5 µg/mL (≈ 0.52 µM)	1.9 mg/kg	8 µg/mL (≈ 8.32 µM)
CC[C@H]1OC(=O)C[C@@H](O)[C@H](C)[C@@H](O[C@@H]2O[C@H](C)[C@@H](O)[C@H](N(C)C)[C@H]2O)[C@@H](CCNCCc2ccccc2)C[C@@H](C)C(=O)/C=C/C(C)=C/[C@@H]1CO[C@@H]1O[C@H](C)[C@@H](O)[C@@H](OC)[C@H]1OC	0.5 µg/mL (≈ 0.57 µM)	55 mg/kg	0.25 µg/mL (≈ 0.285 µM)	8 µg/mL (≈ 9.12 µM)	1 µg/mL (≈ 1.14 µM)	0.5 µg/mL (≈ 0.57 µM)	> 1.6 mg/kg	8 µg/mL (≈ 9.12 µM)
CC[C@H]1OC(=O)C[C@@H](O)[C@H](C)[C@@H](O[C@@H]2O[C@H](C)[C@@H](O)[C@H](N(C)C)[C@H]2O)[C@@H](CCO)C[C@@H](C)C(=O)/C=C/C(C)=C/[C@@H]1CO[C@@H]1O[C@H](C)[C@@H](O)[C@@H](O)[C@H]1OC	8 µg/mL (≈ 10.5 µM)	> 100 mg/kg	2 µg/mL (≈ 2.63 µM)	32 µg/mL (≈ 42.1 µM)	2 µg/mL (≈ 2.63 µM)	4 µg/mL (≈ 5.26 µM)	8.9 mg/kg	64 µg/mL (≈ 84.2 µM)
CC[C@H]1OC(=O)C[C@@H](O)[C@H](C)[C@@H](O[C@@H]2O[C@H](C)[C@@H](O)[C@H](N(C)C)[C@H]2O)[C@@H](CCN)C[C@@H](C)C(=O)/C=C/C(C)=C/[C@@H]1CO[C@@H]1O[C@H](C)[C@@H](O)[C@@H](OC)[C@H]1OC	4 µg/mL (≈ 5.17 µM)	> 100 mg/kg	32 µg/mL (≈ 41.4 µM)	128 µg/mL (≈ 166 µM)	32 µg/mL (≈ 41.4 µM)	8 µg/mL (≈ 10.3 µM)	> 10 mg/kg	128 µg/mL (≈ 166 µM)
CC[C@H]1OC(=O)C[C@@H](O)[C@H](C)[C@@H](O[C@@H]2O[C@H](C)[C@@H](O)[C@H](N(C)C)[C@H]2O)[C@@H](CCOc2cccnc2)C[C@@H](C)C(=O)/C=C/C(C)=C/[C@@H]1CO[C@@H]1O[C@H](C)[C@@H](O)[C@@H](OC)[C@H]1OC	0.5 µg/mL (≈ 0.588 µM)	50 mg/kg	2 µg/mL (≈ 2.35 µM)	16 µg/mL (≈ 18.8 µM)	2 µg/mL (≈ 2.35 µM)	0.5 µg/mL (≈ 0.588 µM)	3.9 mg/kg	16 µg/mL (≈ 18.8 µM)
CC[C@H]1OC(=O)C[C@@H](O)[C@H](C)[C@@H](O[C@@H]2O[C@H](C)[C@@H](O)[C@H](N(C)C)[C@H]2O)[C@@H](CCOc2ncnc3ccccc23)C[C@@H](C)C(=O)/C=C/C(C)=C/[C@@H]1CO[C@@H]1O[C@H](C)[C@@H](O)[C@@H](OC)[C@H]1OC	0.25 µg/mL (≈ 0.277 µM)	> 50 mg/kg	0.5 µg/mL (≈ 0.554 µM)	16 µg/mL (≈ 17.7 µM)	0.5 µg/mL (≈ 0.554 µM)	0.25 µg/mL (≈ 0.277 µM)	5.4 mg/kg	4 µg/mL (≈ 4.43 µM)
CC[C@H]1OC(=O)C[C@@H](O)[C@H](C)[C@@H](O[C@@H]2O[C@H](C)[C@@H](O)[C@H](N(C)C)[C@H]2O)[C@@H](CCN2CCCCCCC2)C[C@@H](C)C(=O)/C=C/C(C)=C/[C@@H]1CO[C@@H]1O[C@H](C)[C@@H](O)[C@@H](O)[C@H]1OC	1 µg/mL (≈ 1.17 µM)	100 mg/kg	0.5 µg/mL (≈ 0.585 µM)	32 µg/mL (≈ 37.4 µM)	0.5 µg/mL (≈ 0.585 µM)	1 µg/mL (≈ 1.17 µM)	1.8 mg/kg	16 µg/mL (≈ 18.7 µM)
CC[C@H]1OC(=O)C[C@@H](O)[C@H](C)[C@@H](O[C@@H]2O[C@H](C)[C@@H](O)[C@H](N(C)C)[C@H]2O)[C@@H](CCOS(=O)(=O)c2ccc(C)cc2)C[C@@H](C)C(=O)/C=C/C(C)=C/[C@@H]1CO[C@@H]1O[C@H](C)[C@@H](O)[C@@H](OC)[C@H]1OC	0.5 µg/mL (≈ 0.539 µM)	5 mg/kg	1 µg/mL (≈ 1.08 µM)	32 µg/mL (≈ 34.5 µM)	1 µg/mL (≈ 1.08 µM)	0.5 µg/mL (≈ 0.539 µM)	3.1 mg/kg	8 µg/mL (≈ 8.62 µM)
